# The OligoGym collection
# Where “and” joins values, the source holds several entries; their conditions need not be identical. Equal values may be shown once. After the bases stand the sugars from the 5' end (letter, count) and the backbone: PS all phosphorothioate, else s phosphorothioate and o phosphodiester by linkage. Methylation of C is not given here. k = constrained ethyl (cEt); d = 2'-deoxy (DNA)
# Molecular target: MALAT1
# Conditions: ASO, A431, 0.005 µM
row,Sequence,target mRNA inhibition
1,"AAACGAAACATTGGCA (sugars k3 d10 k3, PS)",46%
2,"AAACTAAGCTACTATA (sugars k3 d10 k3, PS)",-17%
3,"AAACTTATCTGCGGTT (sugars k3 d10 k3, PS)",19%
4,"AAAGAACTAGTGGTTC (sugars k3 d10 k3, PS)",-4%
5,"AAAGAGTGTTCGCAGA (sugars k3 d10 k3, PS)",54%
6,"AAAGCCCACCCTCTAA (sugars k3 d10 k3, PS)",-26%
7,"AAAGGTTACCATAAGT (sugars k3 d10 k3, PS)",5%
8,"AAAGTAGTTCTTCGGT (sugars k3 d10 k3, PS)",17%
9,"AAATACTTCATTACCC (sugars k3 d10 k3, PS)",24%
10,"AAATTTCCTTAGTTGG (sugars k3 d10 k3, PS)",54%
11,"AACACCCGGAAATCGG (sugars k3 d10 k3, PS)",26%
12,"AACATCTGATTCTAAC (sugars k3 d10 k3, PS)",27%
13,"AACCAACTTCCCCTTC (sugars k3 d10 k3, PS)",16%
14,"AACCACACACTACCAT (sugars k3 d10 k3, PS)",-7%
15,"AACCACTCGCTTTCCC (sugars k3 d10 k3, PS)",41%
16,"AACCCCCGGAACTTTT (sugars k3 d10 k3, PS)",1%
17,"AACCGGAGCAGGAAGA (sugars k3 d10 k3, PS)",-16%
18,"AACCTACAACACCCGG (sugars k3 d10 k3, PS)",34%
19,"AACTAAGCTACTATAT (sugars k3 d10 k3, PS)",-2%
20,"AACTGATCTGACTTTG (sugars k3 d10 k3, PS)",34%
21,"AACTGGAAGCTCCTTC (sugars k3 d10 k3, PS)",17%

row,Sequence,target mRNA inhibition
1,"AACTGTAAACCTGTGG (sugars k3 d10 k3, PS)",-8%
2,"AACTTGCCATCTACTA (sugars k3 d10 k3, PS)",-18%
3,"AAGAACTAGCACCTGC (sugars k3 d10 k3, PS)",13%
4,"AAGAACTAGTGGTTCC (sugars k3 d10 k3, PS)",30%
5,"AAGAATCCCCCCCAAG (sugars k3 d10 k3, PS)",28%
6,"AAGATTTGAGCTGCAA (sugars k3 d10 k3, PS)",-1%
7,"AAGGCAAATCGCCATG (sugars k3 d10 k3, PS)",14%
8,"AATACCCTTCTGTTAA (sugars k3 d10 k3, PS)",16%
9,"AATACGACTGCTTAAA (sugars k3 d10 k3, PS)",30%
10,"AATCAGGTGAGGCTGA (sugars k3 d10 k3, PS)",-26%
11,"AATCATTGGGAGTTAC (sugars k3 d10 k3, PS)",24%
12,"AATCCCTTCAGGATCA (sugars k3 d10 k3, PS)",8%
13,"AATCCCTTTACACCTC (sugars k3 d10 k3, PS)",26%
14,"AATCTAAAAGCATTGC (sugars k3 d10 k3, PS)",30%
15,"AATGGACATCTCTTCC (sugars k3 d10 k3, PS)",27%
16,"AATGTACTCAGCTTCA (sugars k3 d10 k3, PS)",48%
17,"AATTACTTCCGTTACG (sugars k3 d10 k3, PS)",43%
18,"AATTCGATCACCTTCC (sugars k3 d10 k3, PS)",16%
19,"AATTGGTAGCTTTCAT (sugars k3 d10 k3, PS)",64% and 81%
20,"AATTTAGAGCTTCTCC (sugars k3 d10 k3, PS)",21%
21,"AATTTTTCTACCGTTT (sugars k3 d10 k3, PS)",11%

row,Sequence,target mRNA inhibition
1,"ACAAAACCCCCGGAAC (sugars k3 d10 k3, PS)",-153%
2,"ACAAAACGAATTCAGG (sugars k3 d10 k3, PS)",31%
3,"ACAAACTTGCCATCTA (sugars k3 d10 k3, PS)",39%
4,"ACAACAAGTAAGCCCC (sugars k3 d10 k3, PS)",-7%
5,"ACAACAATTTAGAGCT (sugars k3 d10 k3, PS)",11%
6,"ACAACTCGCATCACCG (sugars k3 d10 k3, PS)",-212%
7,"ACAATCACTACTCCAA (sugars k3 d10 k3, PS)",31%
8,"ACAATTACCTAAACCC (sugars k3 d10 k3, PS)",33%
9,"ACAGAAGTCTCGGGCT (sugars k3 d10 k3, PS)",19%
10,"ACAGCTAAGATAGCAG (sugars k3 d10 k3, PS)",2%
11,"ACAGCTTATGGAACTT (sugars k3 d10 k3, PS)",27%
12,"ACATATTGCCGACCTC (sugars k3 d10 k3, PS)",43%
13,"ACATATTTTGCCCCCA (sugars k3 d10 k3, PS)",19%
14,"ACATCAAGGATGTATA (sugars k3 d10 k3, PS)",-6%
15,"ACCAAAGACCTCGACA (sugars k3 d10 k3, PS)",14%
16,"ACCAAAGCTGCACTGT (sugars k3 d10 k3, PS)",15%
17,"ACCAACTAAGCGAATG (sugars k3 d10 k3, PS)",-12%
18,"ACCACGAACTGCTGCT (sugars k3 d10 k3, PS)",52%
19,"ACCACTCTAAGATTGT (sugars k3 d10 k3, PS)",-11%
20,"ACCAGGAGTGCCAACC (sugars k3 d10 k3, PS)",8%
21,"ACCAGTCCTTTTAGTA (sugars k3 d10 k3, PS)",-2%

row,Sequence,target mRNA inhibition
1,"ACCCCAACTAAACATA (sugars k3 d10 k3, PS)",26%
2,"ACCCGGAAATCGGCCT (sugars k3 d10 k3, PS)",-6%
3,"ACCGTAACAGGCCACT (sugars k3 d10 k3, PS)",20%
4,"ACCTACAACACCCGGA (sugars k3 d10 k3, PS)",25%
5,"ACCTCTTAAAGCACTT (sugars k3 d10 k3, PS)",18%
6,"ACCTTCTGAACCGGAG (sugars k3 d10 k3, PS)",22%
7,"ACCTTGGGCAGCCAGT (sugars k3 d10 k3, PS)",-4%
8,"ACGAAGAGATACCTGT (sugars k3 d10 k3, PS)",18%
9,"ACGCCAACACAGTTTG (sugars k3 d10 k3, PS)",48%
10,"ACGCTAAGCAATATCT (sugars k3 d10 k3, PS)",37%
11,"ACTAAAGGCTTCAGTC (sugars k3 d10 k3, PS)",26%
12,"ACTACCAGCCATTTCT (sugars k3 d10 k3, PS)",49%
13,"ACTACCATATCCAAAC (sugars k3 d10 k3, PS)",27%
14,"ACTATCACAATTCTTA (sugars k3 d10 k3, PS)",13%
15,"ACTCAAAGTCCAATGC (sugars k3 d10 k3, PS)",31%
16,"ACTCCCCCATTATATT (sugars k3 d10 k3, PS)",2%
17,"ACTCGCTCCTTCCTGG (sugars k3 d10 k3, PS)",48%
18,"ACTCTGATCTGCGGCC (sugars k3 d10 k3, PS)",13%
